Source: ChEMBL document CHEMBL5131382, “Facile and divergent optimization of chromazonarol enabled the identification of simplified drimane meroterpenoids as novel pharmaceutical leads” (Eur J Med Chem, 2022)

Experiments:
Sclerotinia sclerotiorum [1] = experiment: Antifungal activity against Sclerotinia sclerotiorum at 150 uM; assay type: functional
Rhizoctonia solani [2] = experiment: Antifungal activity against Rhizoctonia solani at 150 uM; assay type: functional
Fusarium graminearum = experiment: Antifungal activity against Fusarium graminearum at 150 uM; assay type: functional
Pyricularia oryzae = experiment: Antifungal activity against Pyricularia oryzae at 150 uM; assay type: functional
Phytophthora capsici = experiment: Antifungal activity against Phytophthora capsici at 150 uM; assay type: functional
Sclerotinia sclerotiorum [3] = experiment: Antifungal activity against Sclerotinia sclerotiorum; assay type: functional, organism-based
Rhizoctonia solani [4] = experiment: Antifungal activity against Rhizoctonia solani; assay type: functional, organism-based
HepG2 = experiment: Antiproliferative activity against human HepG2 cells assessed as inhibition of cell proliferation incubated for 72 hrs by MTT assay; assay type: functional, cell-based; details: HepG2, 72 h
MCF7 = experiment: Antiproliferative activity against human MCF7 cells assessed as inhibition of cell proliferation incubated for 72 hrs by MTT assay; assay type: functional, cell-based; details: MCF7, 72 h

SMILES	inhibition at 150 µM (Sclerotinia sclerotiorum [1])	inhibition at 150 µM (Rhizoctonia solani [2])	inhibition at 150 µM (Fusarium graminearum)	inhibition at 150 µM (Pyricularia oryzae)	inhibition at 150 µM (Phytophthora capsici)	EC50 (Sclerotinia sclerotiorum [3])	EC50 (Rhizoctonia solani [4])	EC50 (HepG2)	EC50 (MCF7)
O=C(Nc1ccccc1-c1ccc(Cl)cc1)c1cccnc1Cl [BOSCALID]	79%	93%	27%	74%	23%	0.75 µM	1.62 µM		
Cc1cc(O)c(C[C@@H]2[C@@]3(C)CCCC(C)(C)[C@@H]3CC[C@@]2(C)O)c(O)c1 [ALBACONOL]	72%	49%	43%	7%	30%	24.4 µM	> 150 µM	10.4 µM	10.1 µM
CC1(C)CCC[C@]2(C)[C@@H](Cc3ccc(O)cc3O)[C@](C)(O)CC[C@@H]12	81%	91%	41%	9%	37%	15.2 µM	41.7 µM	10.2 µM	11.9 µM
Cc1c(C[C@@H]2[C@@]3(C)CCCC(C)(C)[C@H]3CC[C@]2(C)O)c(O)cc(O)c1C[C@@H]1[C@@]2(C)CCCC(C)(C)[C@@H]2CC[C@@]1(C)O	6%	1%	4%	-4%	6%				
COc1ccc(NC(=O)Oc2ccc3c(c2)C[C@H]2[C@@](C)(CCC4C(C)(C)CCC[C@@]42C)O3)cc1 (stereo partly specified)	< 60%	< 60%	< 60%	< 60%	< 60%				
CC1(C)CCC[C@]2(C)[C@@H](Cc3cc(O)ccc3O)[C@](C)(O)CC[C@@H]12	39%	48%	39%	28%	28%	> 150 µM	> 150 µM	> 50 µM	50 µM
CC1(C)CCC[C@]2(C)[C@H]3Cc4cc(OC(=O)c5ccc6ccccc6n5)ccc4O[C@]3(C)CC[C@@H]12	< 60%	< 60%	< 60%	< 60%	< 60%				
CC1(C)CCC[C@]2(C)[C@H]3Cc4cc(Oc5cnc6ccccc6c5)ccc4O[C@]3(C)CC[C@@H]12	< 60%	< 60%	< 60%	< 60%	< 60%				
CC1(C)CCC[C@@]2(C)C1CC[C@@]1(C)Oc3ccc(OS(=O)(=O)C(F)(F)F)cc3C[C@@H]12 (stereo partly specified)	< 60%	< 60%	< 60%	< 60%	< 60%				
CC1(C)CCC[C@@]2(C)C1CC[C@@]1(C)Oc3ccc(-c4ccccc4)cc3C[C@@H]12 (stereo partly specified)	< 60%	< 60%	< 60%	< 60%	< 60%				
CC1(C)CCC[C@]2(C)[C@@H](Cc3cc(C(=O)O)ccc3O)[C@](C)(O)CC[C@@H]12	84%	85%	56%	60%	62%	22.2 µM	22.5 µM	> 50 µM	50 µM
Cc1cc(O)cc(O)c1C[C@@H]1[C@@]2(C)CCCC(C)(C)[C@@H]2CC[C@@]1(C)O	82%	92%	56%	65%	29%	40.4 µM	35.2 µM	11.1 µM	11.3 µM
C#CCOc1ccc2c(c1)C[C@@H]1[C@@]3(C)CCCC(C)(C)[C@@H]3CC[C@@]1(C)O2	< 60%	< 60%	< 60%	< 60%	< 60%				
CC(C)=CCOc1ccc2c(c1)C[C@@H]1[C@@]3(C)CCCC(C)(C)[C@@H]3CC[C@@]1(C)O2	< 60%	< 60%	< 60%	< 60%	< 60%				
CC1(C)CCC[C@]2(C)[C@H]3Cc4ccc(O)cc4O[C@]3(C)CC[C@@H]12	47%	72%	49%	50%	53%				
C=CC(=O)Oc1ccc2c(c1)C[C@@H]1[C@@]3(C)CCCC(C)(C)[C@@H]3CC[C@@]1(C)O2	< 60%	< 60%	< 60%	< 60%	< 60%				
COc1ccc(-c2ccc3c(c2)C[C@H]2[C@@](C)(CCC4C(C)(C)CCC[C@@]42C)O3)cc1 (stereo partly specified)	< 60%	< 60%	< 60%	< 60%	< 60%				
CC1(C)CCC[C@]2(C)[C@H]3Cc4cc(OC(=O)c5cccc(F)c5)ccc4O[C@]3(C)CC[C@@H]12	< 60%	< 60%	< 60%	< 60%	< 60%				
Cc1ccc(O)c(C[C@@H]2[C@@]3(C)CCCC(C)(C)[C@@H]3CC[C@@]2(C)O)c1	8%	-12%	-4%	-5%	1%				
CC1(C)CCC[C@@]2(C)C1CC[C@@]1(C)Oc3ccc(O)c(Cl)c3C[C@@H]12 (stereo partly specified)	< 60%	< 60%	< 60%	< 60%	< 60%				
CC1(C)CCC[C@]2(C)[C@@H](Cc3cc(O)cc(O)c3)[C@](C)(O)CC[C@@H]12	10%	-10%	5%	-5%	3%				
CC1(C)CCC[C@]2(C)[C@@H](Cc3ccc(O)c(O)c3)[C@](C)(O)CC[C@@H]12	61%	49%	38%	50%	72%				
CC1(C)CCC[C@]2(C)[C@@H](Cc3c(O)cccc3O)[C@](C)(O)CC[C@@H]12	84%	88%	49%	15%	50%	26.7 µM	29.3 µM	13.9 µM	16 µM
CC1(C)CCC[C@]2(C)[C@@H](Cc3cccc(O)c3O)[C@](C)(O)CC[C@@H]12	42%	42%	36%	24%	24%				
